{"source": "paper PMC7558399", "about": "“In Vitro Selective Growth-Inhibitory Activities of Phytochemicals, Synthetic Phytochemical Analogs, and Antibiotics against Diarrheagenic/Probiotic Bacteria and Cancer/Normal Intestinal Cells” (Pharmaceuticals, 2020)", "type_in_all_cases": "cell-based", "key": {"[1]": {"system": "Clostridium perfringens (DSMZ 11778)", "assay": "microbe, parasite or virus in culture", "details": "DSMZ11778"}, "[2]": {"system": "HT29 (ATCC HTB 38) intestinal cancer cells", "assay": "MTT cytotoxicity assay, HT29", "details": "Homo sapiens, HT-29, HT29, MTT, 72 h; for IC50: read-out: IC50 ± SD; for IC80: read-out: IC80 ± SD (80% inhibitory concentration of proliferation)"}, "[3]": {"system": "Vibrio parahaemolyticus (ATCC 17802)", "assay": "Broth microdilution MIC, V. parahaemolyticus", "details": "read-out: MIC"}, "[4]": {"system": "Bifidobacterium longum ssp. longum (DSMZ 20219)", "assay": "Broth microdilution MIC, B. longum ssp. longum", "details": "DSMZ20219"}, "[5]": {"system": "Lactobacillus rhamnosus (CCM 7091)", "assay": "Broth microdilution MIC, L. rhamnosus", "details": "Lacticaseibacillus rhamnosus, CCM7091, Lactobacillus rhamnosus, read-out: MIC"}, "[6]": {"system": "FHs 74 Int (ATCC CCL 241) intestinal normal cells", "assay": "MTT cytotoxicity assay, FHs 74 Int", "details": "FHs74Int, 72 h; for IC50: read-out: IC50 ± SD; for IC80: read-out: IC80 ± SD (80% inhibitory concentration of proliferation)"}, "[7]": {"system": "intestinal cancer cells (HT29 and Caco-2)", "assay": "MTT cytotoxicity assay, mean for intestinal cancer cells", "details": "for IC50: read-out: x¯ -CC ± SD: mean IC50 for intestinal cancer cells; for IC80: read-out: x¯ -CC ± SD: mean IC80 for intestinal cancer cells"}, "[8]": {"system": "Lactobacillus reuteri (CCM 3625)", "assay": "Broth microdilution MIC, L. reuteri", "details": "Limosilactobacillus reuteri, CCM3625"}, "[9]": {"system": "Bifidobacterium bifidum (ATCC 29521)", "assay": "Broth microdilution MIC, B. bifidum"}, "[10]": {"system": "Yersinia enterocolitica (ATCC 9610)", "assay": "Broth microdilution MIC, Y. enterocolitica", "details": "read-out: MIC"}, "[11]": {"system": "S. enterica ssp. enterica serovar Typhimurium (ATCC 14028)", "assay": "Broth microdilution MIC, Salmonella Typhimurium", "details": "Salmonella Typhimurium, read-out: MIC"}, "[12]": {"system": "Bifidobacterium breve (ATCC 15700)", "assay": "Broth microdilution MIC, B. breve"}, "[13]": {"system": "Listeria monocytogenes (ATCC 7644)", "assay": "Broth microdilution MIC, L. monocytogenes"}, "[14]": {"system": "Shigella flexneri (ATCC 12022)", "assay": "microbe, parasite or virus in culture", "details": "ATCC12022"}, "[15]": {"system": "Bifidobacterium adolescentis (DSMZ 20087)", "assay": "Broth microdilution MIC, B. adolescentis"}, "[16]": {"system": "Bacillus cereus (ATCC 14579)", "assay": "Broth microdilution MIC, B. cereus", "details": "median/mode, read-out: MIC"}, "[17]": {"system": "Lactobacillus casei (DSMZ 20011)", "assay": "Broth microdilution MIC, L. casei", "details": "Lacticaseibacillus casei, DSMZ20011, Lactobacillus casei, read-out: MIC"}, "[18]": {"system": "Bifidobacterium animalis spp. lactis (DSMZ 10140)", "assay": "Broth microdilution MIC, B. animalis spp. lactis", "details": "DSMZ10140"}, "[19]": {"system": "E. coli 0175:H7 (NCTC 12900)", "assay": "microbe, parasite or virus in culture", "details": "Escherichia coli, NCTC12900"}, "[20]": {"system": "Clostridium difficile (DSMZ 12056)", "assay": "microbe, parasite or virus in culture", "details": "Clostridioides difficile, DSMZ12056; Clostridium difficile; […]; read-out: MIC"}, "[21]": {"system": "Bacteroides fragilis (ATCC 25285)", "assay": "Broth microdilution MIC, B. fragilis"}, "[22]": {"system": "Caco-2 (ATCC HTB 37) intestinal cancer cells", "assay": "MTT cytotoxicity assay, Caco-2", "details": "Homo sapiens; for IC50: read-out: IC50 ± SD; for IC80: read-out: IC80 ± SD (80% inhibitory concentration of proliferation)"}, "[23]": {"system": "probiotic bacteria (9 strains)", "assay": "Broth microdilution MIC, probiotic bacteria as a group (mean or range over strains)", "details": "read-out: x¯ -PB ± SD: mean MIC for probiotic bacteria"}, "[24]": {"system": "Enterococcus faecalis (ATCC 29212)", "assay": "Broth microdilution MIC, E. faecalis", "details": "read-out: MIC"}, "[25]": {"system": "Salmonella enterica ssp. enterica serovar Enteritidis (ATCC 13076)", "assay": "Broth microdilution MIC, Salmonella Enteritidis", "details": "Salmonella Enteritidis, read-out: MIC"}, "[26]": {"system": "diarrheagenic bacteria (12 strains)", "assay": "organism not typed"}, "[27]": {"system": "Escherichia coli (ATCC 25922)", "assay": "Broth microdilution MIC, E. coli", "details": "read-out: MIC"}, "[28]": {"details": "FHs 74 Int (intestinal normal cells), MTT"}, "[29]": {"details": "mean of 12 strains, >512 replaced with 1024, read-out: x¯ -DB ± SD: mean MIC for diarrheagenic bacteria"}}, "note": "Where two headings read alike, the source gives them in different places."}
{"smiles": "O=[N+]([O-])c1ccc(O)c2ncccc12", "note": "[NXL, 5-nitroquinolin-8-ol]", "values": [{"measurement": "MIC", "setting": "[1]", "value": 4, "unit": "mg/L"}, {"measurement": "IC50", "setting": "[2]", "value": "2.6 ± 0.3", "unit": "mg/L"}, {"measurement": "IC80", "setting": "[2]", "value": "3.7 ± 0.4", "unit": "mg/L"}, {"measurement": "MIC", "setting": "[3]; ATCC17802, growth inhibited by ≥80%", "value": 8, "unit": "mg/L"}, {"measurement": "MIC", "setting": "[4]; Bifidobacterium longum ssp. longum, growth inhibited by ≥80%, read-out: MIC", "value": 16, "unit": "mg/L"}, {"measurement": "MIC", "setting": "[5]; growth inhibited by ≥80%", "value": 16, "unit": "mg/L"}, {"measurement": "IC50", "setting": "[6]; [28]", "value": "0.4 ± 0.05", "unit": "mg/L"}, {"measurement": "IC80", "setting": "[6]; [28]", "value": "0.8 ± 0.05", "unit": "mg/L"}, {"measurement": "IC50", "setting": "[7]; mean of HT29 and Caco-2, >512 replaced with 1024", "value": "1.8 ± 0.8", "unit": "mg/L"}, {"measurement": "IC80", "setting": "[7]", "value": "4.4 ± 0.7", "unit": "mg/L"}, {"measurement": "MIC", "setting": "[8]; Lactobacillus reuteri, growth inhibited by ≥80%, read-out: MIC", "value": 16, "unit": "mg/L"}, {"measurement": "MIC", "setting": "[9]; ATCC29521, growth inhibited by ≥80%, read-out: MIC", "value": 16, "unit": "mg/L"}, {"measurement": "MIC", "setting": "[10]; ATCC9610, growth inhibited by ≥80%", "value": 8, "unit": "mg/L"}, {"measurement": "MIC", "setting": "[11]; growth inhibited by ≥80%", "value": 16, "unit": "mg/L"}, {"measurement": "MIC", "setting": "[12]; ATCC15700, growth inhibited by ≥80%, read-out: MIC", "value": 32, "unit": "mg/L"}, {"measurement": "MIC", "setting": "[13]; ATCC7644, growth inhibited by ≥80%, read-out: MIC", "value": 16, "unit": "mg/L"}, {"measurement": "MIC", "setting": "[14]", "value": 2, "unit": "mg/L"}, {"measurement": "MIC", "setting": "[15]; DSMZ20087, growth inhibited by ≥80%, read-out: MIC", "value": 16, "unit": "mg/L"}, {"measurement": "MIC", "setting": "[16]; ATCC14579, growth inhibited by ≥80%", "value": 4, "unit": "mg/L"}, {"measurement": "MIC", "setting": "[17]; growth inhibited by ≥80%", "value": 32, "unit": "mg/L"}, {"measurement": "MIC", "setting": "[18]; Bifidobacterium animalis spp. lactis, growth inhibited by ≥80%, read-out: MIC", "value": 32, "unit": "mg/L"}, {"measurement": "MIC", "setting": "[19]", "value": 32, "unit": "mg/L"}, {"measurement": "MIC", "setting": "[20]", "value": 2, "unit": "mg/L"}, {"measurement": "MIC", "setting": "[21]; ATCC25285, growth inhibited by ≥80%, read-out: MIC", "value": 4, "unit": "mg/L"}, {"measurement": "IC50", "setting": "[22]; Caco-2, MTT, 72 h", "value": "1.1 ± 0.03", "unit": "mg/L"}, {"measurement": "IC80", "setting": "[22]; Caco-2, MTT, 72 h", "value": "5 ± 1.5", "unit": "mg/L"}, {"measurement": "MIC", "setting": "[23]; mean of 9 strains, >512 replaced with 1024", "value": "20 ± 9", "unit": "mg/L"}, {"measurement": "MIC", "setting": "[24]; ATCC29212, growth inhibited by ≥80%", "value": 32, "unit": "mg/L"}, {"measurement": "MIC", "setting": "[25]; growth inhibited by ≥80%", "value": 16, "unit": "mg/L"}, {"measurement": "MIC", "setting": "[26]; B. cereus, clostridial species, E. coli, and S. flexneri, read-out: MICs", "value": "2 to 4", "unit": "mg/L"}, {"measurement": "MIC", "setting": "[26]; [29]", "value": "12 ± 10", "unit": "mg/L"}, {"measurement": "MIC", "setting": "[27]; ATCC25922, growth inhibited by ≥80%", "value": 4, "unit": "mg/L"}]}
{"smiles": "C[n+]1cc2c3c(ccc2c2ccc4cc5c(cc4c21)OCO5)OCO3", "note": "[SG, sanguinarine chloride]", "values": [{"measurement": "MIC", "setting": "[1]", "value": 128, "unit": "mg/L"}, {"measurement": "IC50", "setting": "[2]", "value": "0.9 ± 0.2", "unit": "mg/L"}, {"measurement": "IC80", "setting": "[2]", "value": "1.8 ± 0.4", "unit": "mg/L"}, {"measurement": "MIC", "setting": "[3]; ATCC17802, […]", "value": 32, "unit": "mg/L"}, {"measurement": "MIC", "setting": "[4]; Bifidobacterium longum", "value": 64, "unit": "mg/L"}, {"measurement": "MIC", "setting": "[5]; […]", "value": 64, "unit": "mg/L"}, {"measurement": "IC50", "setting": "[6]", "value": "1 ± 0.1", "unit": "mg/L"}, {"measurement": "IC80", "setting": "[6]", "value": "1.9 ± 0.2", "unit": "mg/L"}, {"measurement": "IC50", "setting": "[7]", "value": "0.8 ± 0.05", "unit": "mg/L"}, {"measurement": "IC80", "setting": "[7]", "value": "1.6 ± 0.2", "unit": "mg/L"}, {"measurement": "MIC", "setting": "[8]", "value": 32, "unit": "mg/L"}, {"measurement": "MIC", "setting": "[9]; ATCC29521", "value": 32, "unit": "mg/L"}, {"measurement": "MIC", "setting": "[10]; ATCC9610, […]", "value": 256, "unit": "mg/L"}, {"measurement": "MIC", "setting": "[11]; […]", "value": 512, "unit": "mg/L"}, {"measurement": "MIC", "setting": "[12]; ATCC15700", "value": 32, "unit": "mg/L"}, {"measurement": "MIC", "setting": "[13]; ATCC7644", "value": 16, "unit": "mg/L"}, {"measurement": "MIC", "setting": "[14]", "value": 64, "unit": "mg/L"}, {"measurement": "MIC", "setting": "[15]; DSMZ20087", "value": 16, "unit": "mg/L"}, {"measurement": "MIC", "setting": "[16]; ATCC14579, […]", "value": 128, "unit": "mg/L"}, {"measurement": "MIC", "setting": "[17]; […]", "value": 32, "unit": "mg/L"}, {"measurement": "MIC", "setting": "[18]; Bifidobacterium animalis", "value": 32, "unit": "mg/L"}, {"measurement": "MIC", "setting": "[19]", "value": 128, "unit": "mg/L"}, {"measurement": "MIC", "setting": "[20]", "value": 64, "unit": "mg/L"}, {"measurement": "MIC", "setting": "[21]; ATCC25285", "value": 32, "unit": "mg/L"}, {"measurement": "IC50", "setting": "[22]; Caco-2, 72 h", "value": "0.8 ± 0.1", "unit": "mg/L"}, {"measurement": "IC80", "setting": "[22]; Caco-2, 72 h", "value": "1.5 ± 0.1", "unit": "mg/L"}, {"measurement": "MIC", "setting": "[23]", "value": "37.3 ± 15", "unit": "mg/L"}, {"measurement": "MIC", "setting": "[24]; ATCC29212, […]", "value": 32, "unit": "mg/L"}, {"measurement": "MIC", "setting": "[25]; […]", "value": 256, "unit": "mg/L"}, {"measurement": "MIC", "setting": "[26]; [29]", "value": "156 ± 137", "unit": "mg/L"}, {"measurement": "MIC", "setting": "[27]; ATCC25922, […]", "value": 256, "unit": "mg/L"}]}
